We go through 19 molecules from patent publication US20230027985A1, “SUBSTITUTED HYDANTOINAMIDES AS ADAMTS7 ANTAGONISTS” (Bayer Aktiengesellschaft, priority 2019, published 2023).

Assay [1] deals with T1, Purified recombinant ADAMTS-7 (rat prodomain/human catalytic domain, SEQ ID No. 01 or 02) (Homo sapiens, UniProt Q9UKP4).
T1 construct: rat ADAMTS-7 signal peptide + prodomain (rat 1-217, Q1EHB3) (N); 2xStrep tag (C); 6xHis tag (C); made in house; host or cells: Expi293 cells
T1 sequence (Q9UKP4 237-537): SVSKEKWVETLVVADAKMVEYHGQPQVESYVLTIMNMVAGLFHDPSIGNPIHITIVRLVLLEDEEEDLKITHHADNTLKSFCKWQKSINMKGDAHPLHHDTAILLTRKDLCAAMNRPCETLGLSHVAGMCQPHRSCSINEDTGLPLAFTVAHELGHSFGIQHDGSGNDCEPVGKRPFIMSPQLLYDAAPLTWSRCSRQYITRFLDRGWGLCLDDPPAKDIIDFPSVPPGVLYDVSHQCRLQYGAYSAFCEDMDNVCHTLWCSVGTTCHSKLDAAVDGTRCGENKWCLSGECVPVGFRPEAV
The experiment in a line: Assay for ADAMTS-7 enzymatic activity (FRET substrate cleavage). It is filed as biochemical. The settings on record: FRET substrate SEQ ID No. 11, 120 min at 32° C.; read-out: ADAMTS7-IC50. The method, then:
Purified recombinant ADAMTS-7 (as of SEQ ID No. 01 or SEQ ID No. 02) was diluted in reaction buffer (20 mM HEPES pH 8.0, 150 mM NaCl, 5 mM CaCl2, 0.004% Brij, 10 μM ZnCl2) fora concentration of approximately 20 nM. 25 μl of the solution were transferred into each well of a 384-well white microtiter plate (Greiner Bio-One 781075) and 1 μl test compound solution (modulator/inhibitor dissolved in DMSO, at the corresponding concentration) or pure DMSO as a control were added per well. […] Amino acids […] are derived from Thrombospondin-1 sequence (275-289). An additional carboxyl glutamic acid was added after the QXL520 quencher to increase substrate solubility. The microtiter plate was incubated for 120 min at the temperature of 32° C. The increase of fluorescence intensity was measured in appropriate fluorescence plate reader (e.g. TECAN Ultra) using excitation wavelength of 485 nm and emission wavelength of 520 nm. IC50 values were calculated from percentage of inhibition of ADAMTS-7 activity as a function of test compound concentration.

In the next assay the target is T2, ADAMTS4 (Homo sapiens, UniProt O75173).
T2 construct: purchased R&D 4307-AD
T2 sequence (O75173 213-685 limits assumed): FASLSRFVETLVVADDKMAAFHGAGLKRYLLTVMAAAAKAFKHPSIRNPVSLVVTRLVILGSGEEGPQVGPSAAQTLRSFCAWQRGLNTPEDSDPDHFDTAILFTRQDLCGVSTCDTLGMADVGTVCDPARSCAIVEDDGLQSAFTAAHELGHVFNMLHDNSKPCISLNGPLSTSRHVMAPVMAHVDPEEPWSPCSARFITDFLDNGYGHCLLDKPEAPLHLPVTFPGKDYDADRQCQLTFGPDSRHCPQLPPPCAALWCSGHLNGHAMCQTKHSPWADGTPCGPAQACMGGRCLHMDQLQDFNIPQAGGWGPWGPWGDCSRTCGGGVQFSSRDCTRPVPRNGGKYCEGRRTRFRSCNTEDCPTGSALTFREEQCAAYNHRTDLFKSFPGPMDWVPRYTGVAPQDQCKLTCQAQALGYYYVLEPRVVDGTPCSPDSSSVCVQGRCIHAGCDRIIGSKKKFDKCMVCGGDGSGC
The experiment in a line: Selectivity assay for ADAMTS-7 modulators (FRET), ADAMTS4. It is filed as biochemical. The settings on record: 50 nM enzyme (R&D 4307-AD), 1 μM Dabcyl/Edans FRET substrate, 120 min at 32° C. As for the experimental part:
The respective enzyme (see table 2 below) was diluted in reaction buffer (50 mM Tris, 2.5 μM ZnCl2, 0.05% BSA, 0.001% Brij, pH 7.5 for ADAM17; 50 mM Tris 7.5, 150 mM NaCl, 10 mM CaCl2, 0.05% Brij for all other enzymes) to the respective concentration and 25 μl were transferred into each well of a 384-well white microtiter plate (Greiner Bio One 781075). 1 μl test compound solution (dissolved in DMSO, at the corresponding concentration) or pure DMSO as a control was added per well. The enzymatic reaction was initiated by addition of 25 μl of the respective concentration of the respective FRET substrate (see table 2 below) in reaction buffer. The microtiter plate was incubated for 120 min at the temperature of 32° C. The increase of fluorescence intensity was measured in appropriate fluorescence plate reader (e.g. TECAN Ultra) using the respective wavelengths for excitation and emission. IC50 values were calculated from percentage of inhibition of enzyme activity as a function of test compound concentration.

Molecules are shown by their SMILES.

What is called IC50 is the concentration at which inhibition is half-maximal.

Take `CC(C)C1(CNC(=O)c2cnn(-c3cc(F)c(F)c(F)c3)n2)NC(=O)NC1=O` (racemic) [Example 99, rac-N-[(4-isopropyl-2,5-dioxoimidazolidin-4-yl)methyl]-2-(3,4,5-trifluorophenyl)-2H-1,2,3-triazole-4-carboxamide]: the IC50 in assay [1] came out at 0.052 µM; against ADAMTS4, 6 µM.

Consider `Cc1scnc1C1(CNC(=O)c2cnn(-c3ccc(F)cc3)n2)NC(=O)NC1=O` (racemic) [Example 100, rac-2-(4-fluorophenyl)-N-{[4-(5-methyl-1,3-thiazol-4-yl)-2,5-dioxoimidazolidin-4-yl]methyl}-2H-1,2,3-triazole-4-carboxamide], for which the values for the IC50 (in assay [1]; against ADAMTS4) were 0.008 µM and 0.68 µM, respectively.

As to `O=C1NC(=O)C(CNC(=O)c2cnn(-c3cccc(F)c3)n2)(c2nccs2)N1` (racemic) [Example 108, rac-N-{[2,5-dioxo-4-(1,3-thiazol-2-yl)imidazolidin-4-yl]methyl}-2-(3-fluorophenyl)-2H-1,2,3-triazole-4-carboxamide], the concentration for half-maximal inhibition (IC50) amounted to 0.012 µM in assay [1] and 0.6 µM against ADAMTS4.

Regarding `O=C1NC(=O)C(CNC(=O)c2cnn(-c3ccc(Cl)c(F)c3)n2)(c2nccs2)N1` (racemic) [Example 109, rac-2-(4-chloro-3-fluorophenyl)-N-{[2,5-dioxo-4-(1,3-thiazol-2-yl)imidazolidin-4-yl]methyl}-2H-1,2,3-triazole-4-carboxamide], the IC50 is 0.019 µM in assay [1] and 1.1 µM against ADAMTS4.

Consider `O=C1NC(=O)C(CNC(=O)c2cnn(-c3ccc(F)c(Cl)c3)n2)(c2nccs2)N1` (racemic) [Example 111, rac-2-(3-chloro-4-fluorophenyl)-N-{[2,5-dioxo-4-(1,3-thiazol-2-yl)imidazolidin-4-yl]methyl}-2H-1,2,3-triazole-4-carboxamide], for which the IC50 in assay [1] is 0.035 µM; against ADAMTS4, 1.2 µM.

`O=C1NC(=O)C(CNC(=O)c2cnn(-c3ccc(F)cc3)n2)(c2nccs2)N1` (racemic) [Example 113, rac-N-{[2,5-dioxo-4-(1,3-thiazol-2-yl)imidazolidin-4-yl]methyl}-2-(4-fluorophenyl)-2H-1,2,3-triazole-4-carboxamide]: the IC50 was 0.039 µM in assay [1] and 2.4 µM on ADAMTS4.

For `O=C1NC(=O)C(CNC(=O)c2cnn(-c3ccc(F)cc3F)n2)(c2nccs2)N1` (racemic) [Example 115, rac-2-(2,4-difluorophenyl)-N-{[2,5-dioxo-4-(1,3-thiazol-2-yl)imidazolidin-4-yl]methyl}-2H-1,2,3-triazole-4-carboxamide], the IC50 stood at 0.087 µM in assay [1] and 6.6 µM on ADAMTS4.

For `CC(C)C1(CNC(=O)c2cnn(-c3cccc(F)c3)n2)NC(=O)NC1=O` (racemic) [Example 118, rac-2-(3-fluorophenyl)-N-[(4-isopropyl-2,5-dioxoimidazolidin-4-yl)methyl]-2H-1,2,3-triazole-4-carboxamide], the concentration for half-maximal inhibition (IC50) in assay [1] came out at 0.046 µM; on ADAMTS4 it was 4.5 µM.

`CC(C)C1(CNC(=O)c2cnn(-c3cccc(C#N)c3)n2)NC(=O)NC1=O` (racemic) [Example 120, rac-2-(3-cyanophenyl)-N-[(4-isopropyl-2,5-dioxoimidazolidin-4-yl)methyl]-2H-1,2,3-triazole-4-carboxamide]: the IC50 in assay [1] worked out at 0.17 µM; at ADAMTS4, 6 µM.

Take `CC(C)C1(CNC(=O)c2cnn(-c3ccc(F)c(F)c3)n2)NC(=O)NC1=O` (racemic) [Example 122, rac-2-(3,4-difluorophenyl)-N-[(4-isopropyl-2,5-dioxoimidazolidin-4-yl)methyl]-2H-1,2,3-triazole-4-carboxamide]: the IC50 in assay [1] turned out to be 0.011 µM; at ADAMTS4 it was 2.5 µM.

With `CC(C)C1(CNC(=O)c2cnn(-c3ccc(Cl)c(F)c3)n2)NC(=O)NC1=O` (racemic) [Example 124, rac-2-(4-chloro-3-fluorophenyl)-N-[(4-isopropyl-2,5-dioxoimidazolidin-4-yl)methyl]-2H-1,2,3-triazole-4-carboxamide], the IC50 turned out to be 0.013 µM in assay [1] and 2.8 µM against ADAMTS4.

On to `Cn1nccc1C1(CNC(=O)c2cnn(-c3ccc(F)cc3)n2)NC(=O)NC1=O` (racemic) [Example 127, rac-2-(4-fluorophenyl)-N-{[4-(1-methyl-1H-pyrazol-5-yl)-2,5-dioxoimidazolidin-4-yl]methyl}-2H-1,2,3-triazole-4-carboxamide], for which the 50% inhibitory concentration (IC50) in assay [1] came to 0.01 µM; at ADAMTS4, 2.4 µM.

Consider `O=C1NC(=O)C(CNC(=O)c2cnn(-c3ccc(F)cc3)n2)(c2ccnn2C(F)F)N1` (racemic) [Example 128, rac-N-({4-[1-(difluoromethyl)-1H-pyrazol-5-yl]-2,5-dioxoimidazolidin-4-yl}methyl)-2-(4-fluorophenyl)-2H-1,2,3-triazole-4-carboxamide], for which the IC50 in assay [1] amounted to 0.029 µM; on ADAMTS4, 2.4 µM.

With `CCn1nccc1C1(CNC(=O)c2cnn(-c3ccc(F)cc3)n2)NC(=O)NC1=O` (racemic) [Example 130, rac-N-{[4-(1-ethyl-1H-pyrazol-5-yl)-2,5-dioxoimidazolidin-4-yl]methyl}-2-(4-fluorophenyl)-2H-1,2,3-triazole-4-carboxamide], the results for the IC50 (in assay [1]; against ADAMTS4) were 0.014 µM and 2.8 µM, respectively.

For `Cc1ncsc1C1(CNC(=O)c2cnn(-c3ccc(F)cc3)n2)NC(=O)NC1=O` (racemic) [Example 131, rac-2-(4-fluorophenyl)-N-{[4-(4-methyl-1,3-thiazol-5-yl)-2,5-dioxoimidazolidin-4-yl]methyl}-2H-1,2,3-triazole-4-carboxamide], the IC50 is 0.037 µM in assay [1] and 2.5 µM against ADAMTS4.

`O=C1NC(=O)C(CNC(=O)c2cnn(-c3ccc(F)cc3)n2)(c2ccnn2CC(F)(F)F)N1` (racemic) [Example 133, rac-N-({2,5-dioxo-4-[1-(2,2,2-trifluoroethyl)-1H-pyrazol-5-yl]imidazolidin-4-yl}methyl)-2-(4-fluorophenyl)-2H-1,2,3-triazole-4-carboxamide]: the IC50 in assay [1] was 0.05 µM; against ADAMTS4 it was 3.2 µM.

For the molecule `O=C1NC(=O)C(CNC(=O)c2cnn(-c3ccc(F)cc3)n2)(c2ncsc2C(F)(F)F)N1` (racemic) [Example 135, rac-N-({2,5-dioxo-4-[5-(trifluoromethyl)-1,3-thiazol-4-yl]imidazolidin-4-yl}methyl)-2-(4-fluorophenyl)-2H-1,2,3-triazole-4-carboxamide], the IC50 turned out to be 0.048 µM in assay [1] and 6.6 µM against ADAMTS4.

Take `O=C1NC(=O)C(CNC(=O)c2cnn(-c3ccc(F)cc3)n2)(c2ccccc2)N1` (racemic) [Example 139, rac-N-[(2,5-dioxo-4-phenylimidazolidin-4-yl)methyl]-2-(4-fluorophenyl)-2H-1,2,3-triazole-4-carboxamide]: the IC50 in assay [1] is 0.069 µM; on ADAMTS4, > 50 µM.

For the molecule `Cn1ccnc1C1(CNC(=O)c2cnn(-c3ccccc3)n2)NC(=O)NC1=O` (racemic) [Example 140, rac-N-{[4-(1-methyl-1H-imidazol-2-yl)-2,5-dioxoimidazolidin-4-yl]methyl}-2-phenyl-2H-1,2,3-triazole-4-carboxamide], the IC50 in assay [1] turned out to be 0.004 µM; against ADAMTS4, 0.36 µM.
